Results: PubChem BioAssay (NCI)
“And” between values parts separate entries of the source, which are not always exact repeats. Equal entries are not always repeated.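 Where inhibition never reached the appropriate level, the endpoint shown equals the highest concentration tested. Otherwise, values were interpolated linearly from a five-concentration, 48-hour dose response in 96-well plates. Here, GI50 denotes the concentration required for 50% inhibition of growth. TGI denotes the concentration required for complete inhibition of growth.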

Key:
Test in all cases: NCI tumour cell line growth inhibition, 48 h
DMS 273 small cell lung = test system: DMS 273 small cell lung
HOP-18 NSCLC = test system: HOP-18 NSCLC
RXF-631 renal = test system: RXF-631 renal
SNB-78 CNS = test system: SNB-78 CNS
DLD-1 colon = test system: DLD-1 colon
M19-MEL melanoma = test system: M19-MEL melanoma
XF 498 CNS = test system: XF 498 CNS
KM20L2 colon = test system: KM20L2 colon
MDA-N = test system: MDA-N
P388 leukemia = test system: P388 leukemia
P388/ADR leukemia = test system: P388/ADR leukemia
SN12K1 renal = test system: SN12K1 renal

SMILES	TGI (DMS 273 small cell lung)	TGI (HOP-18 NSCLC)	TGI (RXF-631 renal)	TGI (SNB-78 CNS)	TGI (DLD-1 colon)	TGI (M19-MEL melanoma) [µM]	TGI (XF 498 CNS)	TGI (KM20L2 colon)	also measured
Clc1cc(Cl)cc(C2SCc3nc4ccccc4n32)c1 (centres undefined)	22.4 µM	67.8 µM	32.9 µM	60.1 µM	–	–	–	–	–
Clc1cc2nc[nH]c2cc1Cl	> 100 µM	> 100 µM	–	> 100 µM	> 100 µM	> 100	> 100 µM	–	–
CCOC(=O)C1Nc2ccc([N+](=O)[O-])cc2[C@H]2OCC[C@@H]12 (some centres undefined)	> 100 µM	> 100 µM	> 100 µM	> 100 µM	> 100 µM	> 100	> 100 µM	> 100 µM	–
CCOC(=O)NC(=O)c1cn(CC(=O)NCC(=O)NCC(=O)N2CCN(CCn3c(C)nc(C(N)=O)c3N)CC2)c(=O)[nH]c1=O	–	> 100 µM	> 100 µM	> 100 µM	> 100 µM	> 100	> 100 µM	> 100 µM	–
O=C1C2c3[nH]c4ccccc4c3C3CCC(c4ccccc4)CC3C2C(=O)N1c1ccccc1 (centres undefined)	> 100 µM	> 100 µM	–	> 100 µM	> 100 µM	> 100	> 100 µM	–	–
Nc1nc(=O)c2[nH]cnc2n1O	–	–	–	–	–	–	–	–	TGI (MDA-N): > 100 µM
COc1ccc(-c2cc(=O)c3c(OC)c(O)c(OC)cc3o2)cc1	–	–	–	–	–	–	–	–	TGI (MDA-N): > 100 µM
COc1ccc2c3c(ccc2c1)NC(C(=O)O)CC3 (centres undefined)	–	–	–	–	–	–	–	–	TGI (MDA-N): > 100 µM
CN(C)C(=O)C(NCCO)c1ccccc1 (centres undefined)	–	–	–	–	–	–	–	–	TGI (MDA-N): > 100 µM
CCCCN1C(=O)C2c3[nH]c4ccccc4c3C3CCCCC3C2C1=O (mixture of isomers)	23.5 µM	–	36.4 µM	50 µM	> 100 µM	> 100	27.8 µM	> 100 µM	–
NNC(=O)C(O)C(O)C(O)CO (centres undefined)	–	–	–	–	–	–	–	–	TGI (MDA-N): > 100 µM
OCC(O)C(O)C(O)c1nn[nH]n1 (centres undefined)	> 100 µM	–	–	> 100 µM	> 100 µM	> 100	–	–	–
C[C@]12CC[C@H](OC(=O)Cc3ccc(N(CCCl)CCCl)cc3)CC1CC[C@@H]1C2CC[C@]2(C)NC(=O)CCC12 (some centres undefined)	20.5 µM	31.4 µM	34.1 µM	39.3 µM	32.4 µM	28.8	28.3 µM	23.7 µM	–
Cc1ccc2oc(=O)cc(CC(=O)O)c2c1	> 100 µM	> 100 µM	> 100 µM	–	> 100 µM	> 100	93.1 µM	> 100 µM	–
[O-]c1ccccc1[C-]=Nc1ccccc1O.[O-]c1ccccc1[C-]=Nc1ccccc1O.[O]=[U]=[O]	59.5 µM	–	–	61.2 µM	41 µM	48.6	42 µM	> 100 µM	GI50 (DLD-1 colon): 2.23 µM; GI50 (DMS 273 small cell lung): 13.7 µM; GI50 (KM20L2 colon): 0.856 µM; GI50 (M19-MEL melanoma): 12.3 µM; GI50 (SNB-78 CNS): 21.3 µM; GI50 (XF 498 CNS): 20 µM
CC(C)(C)c1cc(O)c2c(c1O)C(=O)CCC2	> 100 µM	> 100 µM	> 100 µM	> 100 µM	> 100 µM	84.9	71.2 µM	> 100 µM	–
CCCCCCN(CCCCCC)C1=CC(=O)C(=O)c2ccccc21	34.7 µM	29.7 µM	38.3 µM	51.8 µM	32.3 µM	4.99	–	37.6 µM	–
CN1CCN2c3ccccc3CC(C#N)(C#N)C2C1 (centres undefined)	> 100 µM	> 100 µM	> 100 µM	> 100 µM	> 100 µM	> 100	–	> 100 µM	–
CC[C@@]1(O)C(=O)OCc2c1cc1n(c2=O)Cc2cc3c([N+](=O)[O-])c(O)ccc3nc2-1	2.02 µM	> 100 µM	–	> 100 µM	> 100 µM	11.9	9.25 µM	38.4 µM	GI50 (DLD-1 colon): 9.41 µM; GI50 (DMS 273 small cell lung): 0.0605 µM; GI50 (HOP-18 NSCLC): 0.758 µM; GI50 (KM20L2 colon): 1.97 µM; GI50 (M19-MEL melanoma): 0.655 µM; GI50 (SNB-78 CNS): 6.6 µM; GI50 (XF 498 CNS): 1.09 µM
CN1C(=O)C(C)(C)NS1(=O)=O	> 100 µM	–	> 100 µM	> 100 µM	> 100 µM	> 100	> 100 µM	> 100 µM	–
CC1=CC[C@@H]2[C@@H](CC[C@@]2(C)O)C(C)(C)[C@H]1CC[C@@H]1[C@@]2(C)CC[C@@H](O)C(C)(C)O[C@@H]2CC[C@]1(C)O	–	–	–	–	–	–	–	–	TGI (MDA-N): 53.2 µM

SMILES	TGI (DMS 273 small cell lung)	TGI (HOP-18 NSCLC)	TGI (RXF-631 renal)	TGI (SNB-78 CNS)	TGI (DLD-1 colon)	TGI (M19-MEL melanoma) [µM]	TGI (XF 498 CNS)	TGI (KM20L2 colon)	also measured
COC(=O)CCC(=O)Nc1cccc(C(F)(F)F)c1	> 100 µM	> 100 µM	–	> 100 µM	> 100 µM	> 100	> 100 µM	> 100 µM	–
CN(C(=N)c1ccccc1)c1ccccc1	> 100 µM	> 100 µM	–	> 100 µM	> 100 µM	> 100	–	> 100 µM	–
CC(=O)O[C@H]1CC[C@@]2(C)C(=CC[C@@H]3C2CC[C@]2(C)C(=O)NC(=O)CC32)C1 (some centres undefined)	> 100 µM	> 100 µM	> 100 µM	> 100 µM	> 100 µM	> 100	> 100 µM	> 100 µM	–
O=S1(=O)OCc2ccccc21	–	–	–	–	–	–	–	–	TGI (MDA-N): > 100 µM
C=C(c1ccccc1)[C@@]1(O)CCCC[C@H]1NC(c1ccccc1)c1ccccc1	27.1 µM	35.4 µM	–	50.7 µM	31.9 µM	28.3	–	43.5 µM	–
C/C(=N\NC(=O)C[n+]1ccccc1)c1sc(-c2nc(C)c(/C(C)=N/NC(=O)C[n+]3ccccc3)s2)nc1C	–	–	–	> 100 µM	> 100 µM	> 100	–	> 100 µM	–
COc1ccc(C(=C(C#N)C#N)c2ccc(OC)cc2)cc1	> 100 µM	–	–	> 100 µM	–	–	–	> 100 µM	–
COc1ccc2c(c1)[n+]([O-])c(/C(C)=N/NC(N)=S)c(C)[n+]2[O-]	–	> 100 µM	> 100 µM	> 100 µM	> 100 µM	> 100	> 100 µM	> 100 µM	TGI (MDA-N): > 100 µM
CC12CCC(=O)N1c1cc([N+](=O)[O-])ccc1N2 (centres undefined)	> 100 µM	> 100 µM	> 100 µM	> 100 µM	> 100 µM	> 100	> 100 µM	> 100 µM	–
CCC1CCC2C3CC=C4CC(OC(C)=O)C(N)CC4(C)C3CCC12C (centres undefined)	–	–	–	–	–	–	–	–	TGI (MDA-N): 6.92 µM
CC1OC(OC23C(=O)CC(C)(O)CC2(O)C=CC2=C3C(=O)c3ccc(C4CC(OC5CCC(OC6CC(O)C(O)C(C)O6)C(C)O5)C(O)C(C)O4)c(O)c3C2=O)CCC1O (centres undefined)	36.3 µM and 10 µM	31.3 µM and 30.8 µM	35.6 µM and 26.5 µM	35.2 µM and 34.4 µM	26.8 µM and 23.8 µM	–	32.9 µM and 32.1 µM	36.3 µM and 34.5 µM	GI50 (DMS 273 small cell lung): 20.5 µM and 3.18 µM
CS(=O)(=O)OCCCCOS(C)(=O)=O	245 µM	> 200 µM	–	233 µM	> 236 µM	230	–	> 235 µM	GI50 (MDA-N): > 1000 µM; TGI (MDA-N): 250 µM and > 1000 µM; TGI (P388 leukemia): 250 µM; TGI (P388/ADR leukemia): 246 µM; TGI (SN12K1 renal): 224 µM
C=CCNC(=O)ON1C(=O)CCC1=O	> 100 µM	> 100 µM	–	> 100 µM	> 100 µM	> 100	–	> 100 µM	–
S=P(C1CCCCC1)(C1CCCCC1)C(c1cccnc1)N1CCCC1 (centres undefined)	–	–	–	–	–	–	–	–	TGI (MDA-N): 39.3 µM
CO[C@H](C(=O)O[C@H]1C(=O)N2CCC3CCC1C32C)c1ccccc1 (some centres undefined)	–	> 100 µM	–	> 100 µM	> 100 µM	> 100	> 100 µM	> 100 µM	–
N#CC1=C(c2ccccc2)NN(Cc2ccccc2)C(c2ccc(Cl)cc2)CC1=O (centres undefined)	52.8 µM	73.5 µM	85.3 µM	> 100 µM	49.1 µM	–	50.1 µM	75.8 µM	–
O=C1C[C@@H]2[C@@H](C=CC23CC3)N1O	> 100 µM	> 100 µM	–	> 100 µM	> 100 µM	> 100	–	> 100 µM	–
COC1=CC(=O)c2c(O)c3c(c(O)c2C1=O)OC1(Oc2c(cc4cc(C)oc(=O)c4c2O)CC1O)C3O (centres undefined)	–	–	–	–	–	–	–	–	TGI (MDA-N): 42.9 µM
CC(=O)CC(=O)ON(C)C(C)=O	> 100 µM	–	–	> 100 µM	> 100 µM	> 100	> 100 µM	> 100 µM	–
C/C(=N\N)C(CN1CCCCC1)C(c1ccccc1)c1c(O)c2ccccc2oc1=O (centres undefined)	> 100 µM	–	> 100 µM	> 100 µM	> 100 µM	> 100	> 100 µM	> 100 µM	–
